Source: patent publication US20100099561A1, “HETEROBICYCLIC ALKYLTHIO-BRIDGED ISOXAZOLINES” (E.I. DU PONT DE NEMOURS AND COMPANY, priority 2008, published 2010)

Experiments:
Assay type in all cases: in vivo
[1] = system: barnyardgrass (Echinochloa crus-galli); experiment: Test B flooded paddy test, barnyardgrass; conditions: Flood
Outline: (§1)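 Compounds were added directly to paddy water over 2-leaf-stage plants in pots flooded 3 cm above soil, water depth maintained. Visual injury scored against controls after 13 to 15 days in greenhouse, 0 (none) to 100 (complete control); dash indicates no result.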

[2] = system: giant foxtail (Setaria faberi); experiment: Test A preemergence, giant foxtail; conditions: 0 to 100 scale (0 no effect, 100 complete control)
Outline: (§2)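 Species planted together in a loam soil and sand blend received compound either as a preemergence soil spray or as a postemergence treatment when 2–10 cm tall with one to two leaves. About ten days later, injury was visually rated relative to untreated plants on a 0–100 scale.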

[3] = system: umbrella sedge (Cyperus difformis); experiment: Test B flooded paddy test, umbrella sedge; conditions: Flood, scale 0 to 100
Outline: as §1

[4] = system: pigweed (Amaranthus retroflexus); experiment: Test A preemergence, pigweed; conditions: 0 to 100 scale (0 no effect, 100 complete control)
Outline: as §2

rice (Oryza sativa) = experiment: Test B flooded paddy test, rice; conditions: Flood, scale 0 to 100
Outline: as §1

[5] = system: barnyardgrass (Echinochloa crus-galli); experiment: Test A postemergence, barnyardgrass; conditions: 0 to 100 scale (0 no effect, 100 complete control)
Outline: as §2

corn (Zea mays) [6] = experiment: Test A preemergence, corn; conditions: 0 to 100 scale (0 no effect, 100 complete control)
Outline: as §2

[7] = system: large crabgrass (Digitaria sanguinalis); experiment: Test A postemergence, large crabgrass; conditions: 0 to 100 scale (0 no effect, 100 complete control)
Outline: as §2

[8] = system: morningglory (Ipomoea spp.); experiment: Test A postemergence, morningglory; conditions: 0 to 100 scale (0 no effect, 100 complete control)
Outline: as §2

corn (Zea mays) [9] = experiment: Test A postemergence, corn; conditions: 0 to 100 scale (0 no effect, 100 complete control)
Outline: as §2

[10] = system: ducksalad (Heteranthera limosa); experiment: Test B flooded paddy test, ducksalad; conditions: Flood, scale 0 to 100
Outline: as §1

[11] = system: velvetleaf (Abutilon theophrasti); experiment: Test A preemergence, velvetleaf; conditions: 0 to 100 scale (0 no effect, 100 complete control)
Outline: as §2

[12] = system: wheat (Triticum aestivum); experiment: Test A postemergence, wheat; conditions: 0 to 100 scale (0 no effect, 100 complete control)
Outline: as §2

[13] = system: barnyardgrass (Echinochloa crus-galli); experiment: Test A preemergence, barnyardgrass; conditions: 0 to 100 scale (0 no effect, 100 complete control)
Outline: as §2

[14] = system: velvetleaf (Abutilon theophrasti); experiment: Test A postemergence, velvetleaf; conditions: 0 to 100 scale (0 no effect, 100 complete control)
Outline: as §2

[15] = system: morningglory (Ipomoea spp.); experiment: Test A preemergence, morningglory; conditions: 0 to 100 scale (0 no effect, 100 complete control)
Outline: as §2

[16] = system: large crabgrass (Digitaria sanguinalis); experiment: Test A preemergence, large crabgrass; conditions: 0 to 100 scale (0 no effect, 100 complete control)
Outline: as §2

[17] = system: giant foxtail (Setaria faberi); experiment: Test A postemergence, giant foxtail; conditions: 0 to 100 scale (0 no effect, 100 complete control)
Outline: as §2

[18] = system: wheat (Triticum aestivum); experiment: Test A preemergence, wheat; conditions: 0 to 100 scale (0 no effect, 100 complete control)
Outline: as §2

[19] = system: pigweed (Amaranthus retroflexus); experiment: Test A postemergence, pigweed; conditions: 0 to 100 scale (0 no effect, 100 complete control)
Outline: as §2

[20] = 250 g ai/ha, scale 0 to 100 (0 no effect, 100 complete control)

CC1(C)CC([S+]([O-])Cc2c(C(F)(F)Cl)nc3n(c2=O)CCC3)=NO1 (stereo not shown) [Compound 17]
30: Plant response rating, Foxtail, Giant ([2]; 125 g ai/ha) | Plant response rating, Foxtail, Giant ([17]; 125 g ai/ha)
20: Plant response rating, Crabgrass, Large ([7]; 125 g ai/ha) | Plant response rating, Wheat ([12]; 500 g ai/ha) | Plant response rating, Barnyardgrass ([13]; 125 g ai/ha)
0: Plant response rating, Barnyardgrass ([1]; 31 g ai/ha, scale 0 to 100) | Plant response rating, Barnyardgrass ([1]; 62 g ai/ha, scale 0 to 100) | Plant response rating, Barnyardgrass ([1]; 125 g ai/ha, scale 0 to 100) | Plant response rating, Barnyardgrass [1, 20] | Plant response rating, Sedge, Umbrella ([3]; 31 g ai/ha) | Plant response rating, Sedge, Umbrella ([3]; 62 g ai/ha) | Plant response rating, Sedge, Umbrella ([3]; 125 g ai/ha) | Plant response rating, Sedge, Umbrella ([3]; 250 g ai/ha) | Plant response rating, Pigweed ([4]; 125 g ai/ha) | Plant response rating, Pigweed ([4]; 500 g ai/ha) | Plant response rating, Rice (rice (Oryza sativa); 31 g ai/ha) | Plant response rating, Rice (rice (Oryza sativa); 62 g ai/ha) | Plant response rating, Rice (rice (Oryza sativa); 125 g ai/ha) | Plant response rating, Rice (rice (Oryza sativa); 250 g ai/ha) | Plant response rating, Barnyardgrass ([5]; 125 g ai/ha) | Plant response rating, Corn (corn (Zea mays) [6]; 125 g ai/ha) | Plant response rating, Corn (corn (Zea mays) [6]; 500 g ai/ha) | Plant response rating, Morningglory ([8]; 125 g ai/ha) | Plant response rating, Morningglory ([8]; 500 g ai/ha) | Plant response rating, Corn (corn (Zea mays) [9]; 125 g ai/ha) | Plant response rating, Corn (corn (Zea mays) [9]; 500 g ai/ha) | Plant response rating, Ducksalad ([10]; 31 g ai/ha) | Plant response rating, Ducksalad ([10]; 62 g ai/ha) | Plant response rating, Ducksalad ([10]; 125 g ai/ha) | Plant response rating, Ducksalad ([10]; 250 g ai/ha) | Plant response rating, Velvetleaf ([11]; 125 g ai/ha) | Plant response rating, Velvetleaf ([11]; 500 g ai/ha) | Plant response rating, Wheat ([12]; 125 g ai/ha) | Plant response rating, Velvetleaf ([14]; 125 g ai/ha) | Plant response rating, Morningglory ([15]; 125 g ai/ha) | Plant response rating, Morningglory ([15]; 500 g ai/ha) | Plant response rating, Wheat ([18]; 125 g ai/ha) | Plant response rating, Wheat ([18]; 500 g ai/ha) | Plant response rating, Pigweed ([19]; 125 g ai/ha)
80: Plant response rating, Foxtail, Giant ([2]; 500 g ai/ha) | Plant response rating, Crabgrass, Large ([16]; 500 g ai/ha)
50: Plant response rating, Crabgrass, Large ([7]; 500 g ai/ha)
60: Plant response rating, Barnyardgrass ([5]; 500 g ai/ha) | Plant response rating, Barnyardgrass ([13]; 500 g ai/ha) | Plant response rating, Foxtail, Giant ([17]; 500 g ai/ha)
40: Plant response rating, Crabgrass, Large ([16]; 125 g ai/ha)
10: Plant response rating, Velvetleaf ([14]; 500 g ai/ha) | Plant response rating, Pigweed ([19]; 500 g ai/ha)

CC1(C)CC([S+]([O-])Cc2c(C(F)(F)F)nc3n(c2=O)CCS3)=NO1 (stereo not shown) [Compound 5]
80: Plant response rating, Foxtail, Giant ([2]; 500 g ai/ha) | Plant response rating, Crabgrass, Large ([16]; 500 g ai/ha)
10: Plant response rating, Barnyardgrass ([1]; 62 g ai/ha, scale 0 to 100) | Plant response rating, Crabgrass, Large ([7]; 125 g ai/ha) | Plant response rating, Pigweed ([19]; 500 g ai/ha)
30: Plant response rating, Barnyardgrass [1, 20] | Plant response rating, Foxtail, Giant ([2]; 125 g ai/ha) | Plant response rating, Barnyardgrass ([5]; 125 g ai/ha) | Plant response rating, Corn (corn (Zea mays) [9]; 500 g ai/ha)
40: Plant response rating, Pigweed ([4]; 125 g ai/ha) | Plant response rating, Velvetleaf ([14]; 500 g ai/ha) | Plant response rating, Crabgrass, Large ([16]; 125 g ai/ha) | Plant response rating, Foxtail, Giant ([17]; 125 g ai/ha)
20: Plant response rating, Ducksalad ([10]; 250 g ai/ha)
45: Plant response rating, Sedge, Umbrella ([3]; 250 g ai/ha)
60: Plant response rating, Pigweed ([4]; 500 g ai/ha) | Plant response rating, Barnyardgrass ([5]; 500 g ai/ha)
70: Plant response rating, Crabgrass, Large ([7]; 500 g ai/ha) | Plant response rating, Barnyardgrass ([13]; 500 g ai/ha) | Plant response rating, Foxtail, Giant ([17]; 500 g ai/ha)
0: Plant response rating, Sedge, Umbrella ([3]; 62 g ai/ha) | Plant response rating, Rice (rice (Oryza sativa); 62 g ai/ha) | Plant response rating, Rice (rice (Oryza sativa); 250 g ai/ha) | Plant response rating, Corn (corn (Zea mays) [6]; 125 g ai/ha) | Plant response rating, Corn (corn (Zea mays) [6]; 500 g ai/ha) | Plant response rating, Morningglory ([8]; 125 g ai/ha) | Plant response rating, Morningglory ([8]; 500 g ai/ha) | Plant response rating, Corn (corn (Zea mays) [9]; 125 g ai/ha) | Plant response rating, Ducksalad ([10]; 62 g ai/ha) | Plant response rating, Velvetleaf ([11]; 125 g ai/ha) | Plant response rating, Velvetleaf ([11]; 500 g ai/ha) | Plant response rating, Wheat ([12]; 125 g ai/ha) | Plant response rating, Wheat ([12]; 500 g ai/ha) | Plant response rating, Barnyardgrass ([13]; 125 g ai/ha) | Plant response rating, Velvetleaf ([14]; 125 g ai/ha) | Plant response rating, Morningglory ([15]; 125 g ai/ha) | Plant response rating, Morningglory ([15]; 500 g ai/ha) | Plant response rating, Wheat ([18]; 125 g ai/ha) | Plant response rating, Wheat ([18]; 500 g ai/ha) | Plant response rating, Pigweed ([19]; 125 g ai/ha)
